Target: T1, leucine aminopeptidase (Sus scrofa, UniProt P15145)
T1 construct: purchased Sigma L0632
Assay: Enzyme cleavage of 4′ blocking group by leucine aminopeptidase
Assay type: biochemical
Settings: 0.25 units leucine aminopeptidase, 37° C., 47 mM sodium phosphate pH 7.2, 3.3% methanol
Description: 1 mg of 4′-C-(N-Leucylaminomethyl)thymidine (21) is incubated at 37° C. in 47 mM sodium phosphate pH 7.2 with 3.3% methanol and 0.25 units leucine aminopeptidase (Sigma L0632), to a final volume of 200 ul.
The products resulting from a), b) or c) above are analysed by thin layer chromatography using reverse phase plates with 10% acetonitrile in water or by electrospray mass spectrometry. Successful cleavage reactions yield nucleosides running concurrently with 4′-aminomethylthymidine which is used as a standard.

T1 sequence (P15145 whole entry): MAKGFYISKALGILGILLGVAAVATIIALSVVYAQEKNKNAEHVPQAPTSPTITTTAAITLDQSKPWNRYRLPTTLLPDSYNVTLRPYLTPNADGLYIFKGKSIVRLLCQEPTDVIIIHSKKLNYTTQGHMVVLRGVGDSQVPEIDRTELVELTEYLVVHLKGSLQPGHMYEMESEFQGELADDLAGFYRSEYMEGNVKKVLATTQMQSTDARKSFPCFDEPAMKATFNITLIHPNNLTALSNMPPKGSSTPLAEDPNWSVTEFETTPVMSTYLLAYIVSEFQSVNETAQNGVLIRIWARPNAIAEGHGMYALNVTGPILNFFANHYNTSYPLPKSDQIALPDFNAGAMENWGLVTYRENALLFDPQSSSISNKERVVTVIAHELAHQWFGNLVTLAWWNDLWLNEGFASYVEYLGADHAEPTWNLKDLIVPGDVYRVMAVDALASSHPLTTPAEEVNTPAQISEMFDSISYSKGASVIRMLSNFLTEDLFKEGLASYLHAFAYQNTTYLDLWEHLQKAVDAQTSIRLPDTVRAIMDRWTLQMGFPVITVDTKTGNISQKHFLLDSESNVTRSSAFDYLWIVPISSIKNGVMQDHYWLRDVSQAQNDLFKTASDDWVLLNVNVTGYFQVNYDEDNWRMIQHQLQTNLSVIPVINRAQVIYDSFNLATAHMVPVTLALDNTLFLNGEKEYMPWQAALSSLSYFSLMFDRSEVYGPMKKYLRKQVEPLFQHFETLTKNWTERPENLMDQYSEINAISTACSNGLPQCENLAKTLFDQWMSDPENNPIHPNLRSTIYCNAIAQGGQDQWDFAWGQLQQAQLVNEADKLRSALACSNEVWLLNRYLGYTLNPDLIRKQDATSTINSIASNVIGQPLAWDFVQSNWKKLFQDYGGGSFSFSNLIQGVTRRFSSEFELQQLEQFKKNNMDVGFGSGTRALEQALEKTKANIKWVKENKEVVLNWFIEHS

SMILES: Cc1cn([C@H]2C[C@H](O)[C@](CO)(CNC(=O)[C@@H](N)CC(C)C)O2)c(=O)[nH]c1=O [compound (21), 4′-C-(N-Leucylaminomethyl)thymidine]
- cleavage of 4′ blocking group (mass spectrometric detection of daughter ion mass 242): enzyme induced cleavage of the amino acid
